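Briefly, cells in 96-well plates were exposed to five compound concentrations for 48 h, and endpoints were estimated by linear interpolation. TGI marks complete inhibition of growth.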
Legend:
Test in all cases: NCI-60 cell line screen, 48 h
ACHN renal = tested on: ACHN renal
DU-145 prostate = tested on: DU-145 prostate
EKVX NSCLC = tested on: EKVX NSCLC
HL-60(TB) leukemia = tested on: HL-60(TB) leukemia
IGROV1 ovarian = tested on: IGROV1 ovarian
KM12 colon = tested on: KM12 colon
LOX IMVI melanoma = tested on: LOX IMVI melanoma
MALME-3M melanoma = tested on: MALME-3M melanoma
MDA-MB-435 = tested on: MDA-MB-435
NCI-H23 lung = tested on: NCI-H23 lung
OVCAR-3 ovarian = tested on: OVCAR-3 ovarian
SF-295 CNS = tested on: SF-295 CNS
SK-MEL-2 melanoma = tested on: SK-MEL-2 melanoma
SK-OV-3 ovarian = tested on: SK-OV-3 ovarian
SNB-19 CNS = tested on: SNB-19 CNS
SNB-75 CNS = tested on: SNB-75 CNS
SR leukemia = tested on: SR leukemia
T-47D breast = tested on: T-47D breast
TK-10 renal = tested on: TK-10 renal

SMILES: CC(C)(C)N(Cc1ccccc1)C(=O)/C=C\S(=O)c1ccccc1 (centres undefined)
- TGI (ACHN renal): 15.9 µM
- TGI (DU-145 prostate): 13.6 µM
- TGI (EKVX NSCLC): 24.1 µM
- TGI (HL-60(TB) leukemia): 6.54 µM
- TGI (IGROV1 ovarian): 17.8 µM
- TGI (KM12 colon): 18.1 µM
- TGI (LOX IMVI melanoma): 5.7 µM
- TGI (MALME-3M melanoma): 12.2 µM
- TGI (MDA-MB-435): 11.3 µM
- TGI (NCI-H23 lung): 7.74 µM
- TGI (OVCAR-3 ovarian): 7.41 µM
- TGI (SF-295 CNS): 27.3 µM
- TGI (SK-MEL-2 melanoma): 8.79 µM
- TGI (SK-OV-3 ovarian): 19.9 µM
- TGI (SNB-19 CNS): 23.6 µM
- TGI (SNB-75 CNS): 23.1 µM
- TGI (SR leukemia): > 29.6 µM
- TGI (T-47D breast): 22.2 µM
- TGI (TK-10 renal): 18.5 µM

From PubChem BioAssay (NCI)
